This note sets out measurements from EPA's ToxRefDB 2.

Data set [1] has as its system rat. The settings on record: Fertility (Segment I); sprague dawley; Oral; Gavage/Intubation; dose end: 13 PND; group: offspring; systemic / in life observation / body weight / offspring (pup) weight.
In data set [2] the test system is rabbit. The settings on record: Prenatal developmental toxicity study, new zealand white, Dermal, Topical, dose end: 18 GD, group: maternal.
Data set [3] deals with rat. The settings on record: Subchronic oral toxicity in rodents, fischer, Water, dose end: 13 week, group: systemic.
The subject of data set [4] is rat. The settings on record: Prenatal developmental toxicity study; wistar; Oral; Feed; dose end: 20 GD; group: maternal; systemic / in life observation / body weight / body weight gain.
Data set [5] concerns mouse. The settings on record: Subchronic oral toxicity in rodents, b6c3f1, Gavage/Intubation, dose end: 13 week, group: systemic.
In data set [6] the test system is mouse. The settings on record: Combined chronic toxicity/carcinogenicity, b6c3f1, Oral, Gavage/Intubation, dose end: 2 year, group: systemic.
The subject of data set [7] is rat. The settings on record: Combined chronic toxicity/carcinogenicity; sprague dawley; Oral; Gavage/Intubation; dose end: 24 month; group: systemic; systemic / hematology / erythrocyte (rbc) count differential / erythrocyte (rbc) + systemic / hematology / hemoglobin (hgb) / hemoglobin (….
Data set [8] has as its system mouse. The settings on record: Carcinogenicity; cd1; Oral; Feed; dose end: 18 month; group: systemic; systemic / in life observation / body weight / body weight + systemic / in life observation / body weight / body weight gain.
Data set [9] has as its system rat. The settings on record: Subchronic oral toxicity in rodents, sprague dawley, Feed, dose end: 90 day, group: systemic.
The subject of data set [10] is dog. The settings on record: Chronic toxicity; beagle; Oral; Gavage/Intubation; dose end: 52 week; group: systemic; systemic / clinical chemistry / cholesterol / cholesterol + systemic / clinical chemistry / triglycerides / triglycerides + systemic / in ….
The test system of data set [11] is rat. The settings on record: Combined chronic toxicity/carcinogenicity, sprague dawley, Oral, Feed, dose end: 104 week, group: systemic.
Data set [12] has as its system rat. The settings on record: Prenatal developmental toxicity study, sprague dawley, Oral, Gavage/Intubation, dose end: 15 GD.
In data set [13] the test system is rat. The settings on record: Combined chronic toxicity/carcinogenicity; fischer; Inhalation; Whole-Body; dose end: 105 week; group: systemic; systemic / pathology microscopic / nose / atrophy + systemic / pathology microscopic / nose / inflammation + systemic / pathology ….
Data set [14] relates to rat. The settings on record: Subchronic oral toxicity in rodents, fischer, Gavage/Intubation, dose end: 13 week, group: systemic.
Data set [15] has as its system rat. The settings on record: Combined chronic toxicity/carcinogenicity; fischer; Oral; Gavage/Intubation; dose end: 2 year; group: systemic; systemic / in life observation / body weight / body weight + systemic / in life observation / clinical signs / [other] + systemic / in life ….
The subject of data set [16] is rat. The settings on record: Prenatal developmental toxicity study, sprague dawley, Oral, Gavage/Intubation, dose end: 19 GD.
The test system of data set [17] is rabbit. The settings on record: Prenatal developmental toxicity study, new zealand white, Oral, Gavage/Intubation, dose end: 18 GD, group: maternal.
In data set [18] the test system is rat. The settings on record: Prenatal developmental toxicity study, sprague dawley, Oral, Gavage/Intubation, dose end: 15 GD. This is another data set of the same source.
[19] abbreviates: systemic / in life observation / clinical signs / desquamation + systemic / in life observation / clinical signs / erythema + systemic / ….
[20] abbreviates: systemic / clinical chemistry / aspartate aminotransferase (ast/sgot) / aspartate aminotransferase (ast/sgot) + systemic / clinical ….
[21] abbreviates: systemic / hematology / reticulocyte / reticulocyte + systemic / organ weight / spleen / absolute + systemic / organ weight / spleen / ….
Where [22] appears, read: systemic / hematology / methemoglobin / methemoglobin + systemic / hematology / reticulocyte / reticulocyte + systemic / pathology ….
Where [23] appears, read: systemic / pathology microscopic / bone marrow / hypercellularity.
The mark [24] stands for this setting: systemic / organ weight / liver / absolute + systemic / organ weight / liver / relative to body weight + systemic / organ weight / heart / ….
Setting [25] is: systemic / organ weight / liver / relative to body weight + systemic / clinical chemistry / cholesterol / cholesterol + systemic / organ ….
The mark [26] stands for this setting: systemic / organ weight / testes / relative to body weight.
[27] abbreviates: group: developmental, developmental / developmental malformation / brain / dilated cerebral ventricle.
[28] abbreviates: group: maternal, systemic / in life observation / clinical signs / altered breathing rate + systemic / in life observation / clinical signs / lethargy + ….
Setting [29] is: systemic / organ weight / liver / relative to body weight.
Where [30] appears, read: group: developmental, systemic / in life observation / body weight / fetal weight.
The mark [31] stands for this setting: group: maternal, systemic / in life observation / body weight / body weight + systemic / in life observation / body weight / body weight gain + systemic / in….
Setting [32] is: reproductive / reproductive performance / implantations / implantations + systemic / in life observation / body weight / body weight gain + ….
Where [33] appears, read: group: developmental, developmental / developmental malformation / bone / incomplete ossification + developmental / developmental malformation / bone / unossified.
[34] abbreviates: group: maternal, systemic / in life observation / clinical signs / salivation + systemic / in life observation / mortality / mortality + systemic / in life ….

Each structure is given as a SMILES string.

A word on the LOAEL: it is the lowest dose or exposure tested at which an adverse effect was seen. As a reminder, the NOAEL is the highest tested level that showed no adverse finding. For `CCCCOCCOCCO` [2-(2-Butoxyethoxy)ethanol], the LEL in [1] was found to be 1000 mg/kg/day; in data set [2] (systemic / in life observation / clinical signs / desquamation + systemic / in life observation / clinical signs / erythema), 300 mg/kg/day; in [3] (systemic / hematology / erythrocyte (rbc) count differential / erythrocyte (rbc) + systemic / hematology / hematocrit (hct) / hematocrit (…), 250 mg/kg/day; in [4] it was 25 mg/kg/day. In addition, the LOAEL is more than 1000 mg/kg/day in data set [1], more than 1000 mg/kg/day in [2] (setting [19]), more than 1000 mg/kg/day in data set [3] (setting [20]) and more than 633 mg/kg/day in data set [4]. Moreover, the NEL in data set [1] was 500 mg/kg/day; in [2] (setting [19]) it was 100 mg/kg/day; in [3] (setting [20]) it was 50 mg/kg/day; in [4] it was less than 25 mg/kg/day. Besides, the NOAEL was not below 1000 mg/kg/day in data set [1], not below 1000 mg/kg/day in data set [2] (setting [19]), not below 1000 mg/kg/day in [3] (setting [20]) and not below 633 mg/kg/day in data set [4].

Take `Nc1ccc([N+](=O)[O-])cc1` [4-Nitroaniline]: the lowest observed adverse effect level (LOAEL) in [5] (setting [21]) is 30 mg/kg/day; in [6] (setting [22]) it was 30 mg/kg/day; in data set [7] it was more than 9 mg/kg/day. The NEL was 3 mg/kg/day in data set [5] (setting [21]), less than 3 mg/kg/day in [6] (setting [23]) and 0.25 mg/kg/day in data set [7]. Also, the NOAEL in [5] (setting [21]) was 10 mg/kg/day; in [6] (setting [22]), 3 mg/kg/day; in data set [7], not below 9 mg/kg/day. The LEL in data set [5] (systemic / pathology microscopic / spleen / hematopoietic cell proliferation + systemic / organ weight / liver / relative to body weight + …) turned out to be 10 mg/kg/day; in data set [6] (setting [23]), 3 mg/kg/day; in data set [7] it was 1.5 mg/kg/day.

On to `O=C(NC(=O)c1c(F)cccc1F)Nc1ccc(CON=C(c2ccc(Cl)cc2)C2CC2)cc1` [Flucycloxuron], for which the LEL in [8] stood at 73 mg/kg/day; in data set [9] (setting [24]), 200 mg/kg/day; in [10] it was 10 mg/kg/day; in data set [11] (setting [26]), 120 mg/kg/day. The LOAEL in data set [8] was 73 mg/kg/day; in data set [9] (systemic / pathology microscopic / liver / necrosis + systemic / pathology microscopic / spleen / pigmentation + systemic / organ weight / …), 2000 mg/kg/day; in [10] it was 10 mg/kg/day; in [11] (setting [25]), more than 7000 mg/kg/day. Further, the NEL in data set [8] was 5.3 mg/kg/day; in data set [9] (setting [24]), less than 200 mg/kg/day; in data set [10], less than 10 mg/kg/day; in data set [11] (setting [26]), less than 120 mg/kg/day. Also, the NOAEL was 5.3 mg/kg/day in data set [8], 200 mg/kg/day in data set [9] (systemic / pathology microscopic / liver / necrosis + systemic / pathology microscopic / spleen / pigmentation + systemic / clinical …), less than 10 mg/kg/day in data set [10] and not below 7000 mg/kg/day in [11] (setting [25]).

For `c1ccc2ccccc2c1` [Naphthalene], in [12] (setting [27]), the LEL is 450 mg/kg/day, the LOAEL was more than 450 mg/kg/day, the NEL was 150 mg/kg/day and the no-observed-adverse-effect level (NOAEL) is not below 450 mg/kg/day. In [12] (setting [28]), the LEL worked out at 50 mg/kg/day, the LOAEL came to 50 mg/kg/day, the NEL was less than 50 mg/kg/day and the no observed adverse effect level (NOAEL) was less than 50 mg/kg/day. For the same compound, in data set [13], the LEL was determined as 3.6 mg/kg/day, the LOAEL worked out at 3.6 mg/kg/day, the NEL is less than 3.6 mg/kg/day and the NOAEL was less than 3.6 mg/kg/day.

Turning to `[N-]=[N+]=[N-].[Na+]` [Sodium azide], the LOAEL was 10 mg/kg/day in data set [14] (systemic / in life observation / body weight / body weight gain + systemic / in life observation / clinical signs / hunched posture), 10 mg/kg/day in data set [15], more than 17.5 mg/kg/day in data set [16] (setting [30]) and more than 17.5 mg/kg/day in data set [16] (setting [31]). Further, the NOAEL in data set [14] (systemic / in life observation / body weight / body weight gain + systemic / in life observation / clinical signs / hunched posture + …) is 5 mg/kg/day; in [15], 5 mg/kg/day; in data set [16] (setting [30]) it was not below 17.5 mg/kg/day; in data set [16] (setting [31]), not below 17.5 mg/kg/day. Moreover, the LEL in data set [14] (setting [29]) was found to be 1.25 mg/kg/day; in data set [15], 10 mg/kg/day; in data set [16] (setting [30]), 17.5 mg/kg/day; in data set [16] (setting [31]) it was 17.5 mg/kg/day. The NEL is less than 1.25 mg/kg/day in data set [14] (setting [29]), 5 mg/kg/day in [15], 5 mg/kg/day in data set [16] (setting [30]) and 5 mg/kg/day in data set [16] (setting [31]).

On to `CCN(CC)CC.O=C(O)COc1nc(Cl)c(Cl)cc1Cl` [Triclopyr triethylamine salt], for which the LOAEL in data set [17] (setting [32]) came to 100 mg/kg/day; in data set [18] (setting [33]), 300 mg/kg/day; in [18] (group: maternal, systemic / in life observation / clinical signs / salivation + systemic / in life observation / mortality / mortality), 300 mg/kg/day. Moreover, the NEL in data set [17] (setting [32]) was 10 mg/kg/day; in data set [18] (setting [33]), 100 mg/kg/day; in data set [18] (setting [34]) it was 30 mg/kg/day. Also, the NOAEL in [17] (setting [32]) worked out at 30 mg/kg/day; in [18] (setting [33]), 100 mg/kg/day; in [18] (setting [34]), 100 mg/kg/day. The LEL is 30 mg/kg/day in data set [17] (reproductive / reproductive performance / preimplantation loss / preimplantation loss); 300 mg/kg/day in [18] (setting [33]); 100 mg/kg/day in data set [18] (group: maternal, systemic / in life observation / water consumption / water consumption).
